One data set concerns histamine-induced death. As to the kind of experiment: Protective effect on histamine-induced death. Type of data set: in vivo, guinea pig (Hartley-strain male). The settings on record: oral 1 mg/kg, 2 h before 1.25 mg/kg i.v. histamine hydrochloride, guinea pig; for responders at 1 mg/kg: Cavia porcellus, read-out: Percent inhibition of histamine-induced death at a dose of 1 mg/kg, P.D. (%). The procedure: Hartley-strain male guinea pigs weighing 200 to 250 g were employed. After the test animals were starved for 5 hours, the test substance was orally administered at a dose of 1 mg/kg. 2 hours later after administration of the test substance, 1.25 mg/kg of histamine hydrochloride was intravenously administered to induce histamine shock. The potency of the test substance was judged by the percent inhibition of death induced by histamine.

Data set [1] relates to thiopental-induced anesthesia. The format is in vivo, mouse (ddY-strain male). The note with it: 60 mg/10 ml/kg, control 1.00. The method, then: ddY-strain male mice of 5 weeks of age were employed. Thiopental sodium was dissolved in physiological saline, and the test substance was prepared with a suspending agent of 0.5% Tween 80 (trade name, produced by Atlas Powder Co.; polyoxyethylene (20) sorbitan mono-oleate) and 1% gum tragacanth in the ratio of 1:2.5. The test animals were starved for 4 hours, 60 mg/10 ml/kg of the test substance was intraperitoneally administered (or orally administered), and then 20 minutes later (1 hour later in the case of oral administration), 30 mg/[…] of thiopental sodium was intravenously administered. The time immediately from intravenous administration to the righting reflex was measured, and this was defined as the anesthetic time. The formula for determining the anesthesia elongation is shown below. [formula]

The conditions of data set [2]: cited from earlier work.
Data set [3] can be described thus: toxicity test in mice by oral administration. The note with it: in vivo, male mouse. The text has this: Also, the compounds of the present invention are extremely safe, and can be used continuously for a long term as pharmaceuticals, and were confirmed to have good tolerability in the toxicity test in mice by oral administration.
The mark [4] stands for this setting: i.p., 20 minutes before i.v. thiopental sodium.
Where [5] appears, read: p.o., 1 hour before i.v. thiopental sodium.

Read-outs that look alike come from different tables or passages of the source.

For the molecule `Clc1ccc(C(OC2CCN(CCCSc3nc4ccccc4s3)CC2)c2ccccn2)cc1` (centres unmarked) [Compound F, 2-[3-[4-[(4-Chlorophenyl)-2-pyridylmethoxy]-1-piperidyl]-propylthio]benzothiazole], the responders at 1 mg/kg in the data set with histamine-induced death stood at 80%. In addition, in data set [1] (setting [4]), the “The ratio of the elongation on the anesthetic time induced by thiopental” value (“The ratio of the elongation” below) was 1.73. On the same counts, the results for `Clc1ccc(C(OC2CCN(CCCSc3nc4ccccc4o3)CC2)c2ccccn2)cc1` (centres unmarked) [Compound C] are 100% and 0.91. As to `NC(=O)CCCN1CCC(OC(c2ccc(Cl)cc2)c2ccccn2)CC1.O=C(O)/C=C\C(=O)O` (centres unmarked) [Compound M, 4-[4-[(4-Chlorophenyl)-2-pyridylmethoxy]-1-piperidyl]-butanamide maleate], in the data set with histamine-induced death, the responders at 1 mg/kg was determined as 100%. Also, in data set [1] (setting [5]), the “The ratio of the elongation” value is given as 0.75.

In the case of `O=c1[nH]c2ccccc2n1CCCN1CCN(C(c2ccccc2)c2ccccc2)CC1` [Oxatomide, reference compound], the responders at 1 mg/kg with histamine-induced death was 100%. Besides, the “The ratio of the elongation” value in data set [1] (setting [5]) is 4.56. `c1ccc2c(c1)Sc1ccccc1N2CC1CN2CCC1CC2` (centres unmarked) [Meqiutazine, reference compound]: the responders at 1 mg/kg with histamine-induced death turned out to be 80%.

As for `Clc1ccc(C(OC2CCN(CCNc3nc4ccccc4s3)CC2)c2ccccn2)cc1` (centres unmarked) [Compound H, 2-[2-[4-[(4-Chlorophenyl)-2-pyridylmethoxy]-1-piperidyl]-ethylamino]benzothiazole], the responders at 1 mg/kg in the data set on histamine-induced death turned out to be 100%. In data set [1] (setting [4]), the “The ratio of the elongation” value is on record as 1.05. For the molecule `CCOC(=O)CCCN1CCC(OC(c2ccccc2)c2ccccc2)CC1.O=C(O)/C=C/C(=O)O` [Compound N, Ethyl 4-(4-diphenylmethoxy-1-piperidyl)butanoate fumaric acid salt], the responders at 1 mg/kg with histamine-induced death was found to be 80%. Besides, the “The ratio of the elongation” value in data set [1] (setting [5]) came to 0.90.

As to `CCOc1ccc2nc(SCCCN3CCC(OC(c4ccc(Cl)cc4)c4ccccn4)CC3)sc2c1.O=C(O)/C=C/C(=O)O` (centres unmarked) [Compound G, 2-[3-[4-[(4-chlorophenyl)-2-pyridylmethoxy]-1-piperidyl]propylthio]-6-ethoxybenzothiazole fumarate], in the data set on histamine-induced death, the responders at 1 mg/kg amounted to 100%. In data set [1] (setting [5]), the “The ratio of the elongation” value is 0.92. On the same counts, the results for `CCOC(=O)C=CCN1CCC(OC(c2ccc(Cl)cc2)c2ccccn2)CC1` (centres unmarked) [Compound O, Ethyl 4-[4-[(4-chlorophenyl)-2-pyridylmethoxy]-1-piperidyl]-2-butenoate] are 100% and 1.14. `Clc1ccc(C(OC2CCN(CCSc3nc4ccccc4s3)CC2)c2ccccn2)cc1` (centres unmarked) [Compound E, 2-[2-[4-[(4-Chlorophenyl)-2-pyridylmethoxy]-1-piperidyl]-ethylthio]benzothiazole]: the responders at 1 mg/kg in the data set on histamine-induced death was found to be 60%. Further, in data set [1] (setting [4]), the “The ratio of the elongation” value worked out at 1.02. On to `CN1CCCC(n2nc(Cc3ccc(Cl)cc3)c3ccccc3c2=O)CC1` (centres unmarked) [Azelastine hydrochloric acid, reference compound], for which, in the data set on histamine-induced death, the responders at 1 mg/kg stood at 100%. Consider `CC(C)(C)c1ccc(C(O)CCCN2CCC(C(O)(c3ccccc3)c3ccccc3)CC2)cc1` (centres unmarked) [Terfenadine, reference compound], for which the responders at 1 mg/kg in the data set on histamine-induced death came out at 50%. Also, the sedative side-effect entry in data set [2] (in vivo) is “little sedative side-effect”. For `CC(=O)CCCN1CCC(OC(c2ccc(Cl)cc2)c2ccccn2)CC1.O=C(O)/C=C/C(=O)O` (centres unmarked) [Compound P, 5-[4-[(4-Chlorophenyl)-2-pyridylmethoxy]-1-piperidyl]-2-pentanone fumaric acid salt], the responders at 1 mg/kg in the data set with histamine-induced death is 100%. In data set [1] (setting [5]), the “The ratio of the elongation” value was 0.86. With `O=C(O)CCCN1CCC(OC(c2ccc(Cl)cc2)c2ccccn2)CC1` (centres unmarked) [Compound L, 4-[4-[(4-Chlorophenyl)-2-pyridylmethoxy]-1-piperidyl]-butanoic acid], in the data set with histamine-induced death, the responders at 1 mg/kg was 100%. With `CCOC(=O)CCCN1CCC(OC(c2ccc(Cl)cc2)c2ccccn2)CC1.Cc1ccc(S(=O)(=O)O)cc1` (centres unmarked) [Compound K, Ethyl 4-[4-[(4-chlorophenyl)-2-pyridylmethoxy]-1-piperidyl]butanoate p-toluenesulfonate], in data set [3], the LD50 (as a rule, the dose expected to kill half of the subjects tested) was found to be 2200 mg/kg. For the same molecule, the “The ratio of the elongation” value in data set [1] (setting [5]) was found to be 1.19. Take `COc1ccc(CCN2CCC(Nc3nc4ccccc4n3Cc3ccc(F)cc3)CC2)cc1` [Astemizole, reference compound]: the responders at 1 mg/kg with histamine-induced death came to 100%. Also, the sedative side-effect entry in data set [2] (reported for control drugs) is given as “little sedative side-effect”. Regarding `Clc1ccc(C(OC2CCN(CCNc3nc4ccccc4o3)CC2)c2ccccn2)cc1.O=C(O)/C=C/C(=O)O` (centres unmarked) [Compound D, 2-[2-[4-[(4-Chlorophenyl)-2-pyridylmethoxy]-1-piperidyl]-ethylamino]benzoxazole fumaric acid salt], the responders at 1 mg/kg with histamine-induced death amounted to 100%. The LD50 in data set [3] was found to be 740 mg/kg. In addition, the “The ratio of the elongation” value in data set [1] (setting [5]) is 0.88. Take `CCOC(=O)CCCN1CCC(OC(c2ccc(Cl)cc2)c2ccccn2)CC1` (centres unmarked) [Compound J, Ethyl 4-[4-[(4-chlorophenyl)-2-pyridylmethoxy]-1-piperidyl]butanoate]: the responders at 1 mg/kg with histamine-induced death amounted to 100%. Also, the “The ratio of the elongation” value in data set [1] (setting [4]) came out at 1.04. Turning to `c1ccc(C(c2ccccc2)N2CCN(CCCSc3nc4ccccc4s3)CC2)cc1` [Compound I, 2-[3-[4-(diphenylmethyl)-1-piperadinyl]propylthio]benzothiazole dimaleate], the responders at 1 mg/kg with histamine-induced death worked out at 80%. In data set [1] (setting [4]), the “The ratio of the elongation” value is listed as 1.25. On the same counts, the results for `Clc1ccc(C(OC2CCN(CCSc3nc4ccccc4o3)CC2)c2ccccn2)cc1` (centres unmarked) [Compound A, 2-[2-[4-[(4-Chlorophenyl)-2-pyridylmethoxy]-1-piperidyl]-ethylthio]benzoxazole] are 100% and 0.89. On to `O=C(CCCN1CCC(OC(c2ccc(Cl)cc2)c2ccccn2)CC1)c1ccccc1` (centres unmarked) [Compound Q, 4-[(4-Chlorophenyl)-2-pyridylmethoxy]-1-(3-benzoylpropyl)piperidine], for which the responders at 1 mg/kg in the data set on histamine-induced death came out at 100%. For the same molecule, in data set [1] (setting [5]), the “The ratio of the elongation” value was found to be 1.25. Take `Clc1ccc(C(OC2CCN(CCSc3nc4ccccc4o3)CC2)c2ccccn2)cc1.O=C(O)/C=C/C(=O)O` (centres unmarked) [Compound B, 2-[2-[4-[(4-Chlorophenyl)-2-pyridylmethoxy]-1-piperidyl]-ethylthio]benzoxazole fumarate]: the LD50 in data set [3] was 1700 mg/kg. Also, the “The ratio of the elongation” value in data set [1] (setting [5]) was 1.21. Consider “Chlorophenylamine maleate [reference compound]”, for which the “Percent inhibition of histamine-induced death at a dose of 1 mg/kg, P.D. (%)” value in the data set with histamine-induced death is 100%. Moreover, in data set [1] (setting [4]), the “The ratio of the elongation” value was 1.81.
